According to ChEMBL document CHEMBL1145400, “Synthesis and biological evaluation of 4(5)-(6-alkylpyridin-2-yl)imidazoles as transforming growth factor-beta type 1 receptor kinase inhibitors” (J Med Chem, 2007):

Experiments:
TGF-beta receptor type-1 = molecular target: T1, TGF-beta receptor type-1 (Homo sapiens, UniProt P36897); test: Inhibition of human recombinant ALK5 phosphorylation expressed in Sf9 cells
T1 sequence (P36897 whole entry): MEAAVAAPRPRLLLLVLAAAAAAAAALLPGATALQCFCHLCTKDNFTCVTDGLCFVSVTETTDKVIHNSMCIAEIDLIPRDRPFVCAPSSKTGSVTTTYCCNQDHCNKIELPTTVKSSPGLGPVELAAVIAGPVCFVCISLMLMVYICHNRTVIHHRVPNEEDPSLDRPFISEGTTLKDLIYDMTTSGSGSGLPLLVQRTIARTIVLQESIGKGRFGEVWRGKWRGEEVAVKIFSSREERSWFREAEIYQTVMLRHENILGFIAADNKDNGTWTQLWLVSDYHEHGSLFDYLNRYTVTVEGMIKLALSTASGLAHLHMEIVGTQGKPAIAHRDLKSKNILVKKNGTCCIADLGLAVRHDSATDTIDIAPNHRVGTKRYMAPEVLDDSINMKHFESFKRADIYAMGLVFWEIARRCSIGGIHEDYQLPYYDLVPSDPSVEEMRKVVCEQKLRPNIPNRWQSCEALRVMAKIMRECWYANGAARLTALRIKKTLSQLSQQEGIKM

[1] = molecular target: Mitogen-activated protein kinase 14 (Homo sapiens, UniProt Q16539)
[2] = molecular target: T2, Serine/threonine-protein kinase D1 (Homo sapiens, UniProt Q15139); test: Inhibition of PKCmu
T2 sequence (Q15139 whole entry): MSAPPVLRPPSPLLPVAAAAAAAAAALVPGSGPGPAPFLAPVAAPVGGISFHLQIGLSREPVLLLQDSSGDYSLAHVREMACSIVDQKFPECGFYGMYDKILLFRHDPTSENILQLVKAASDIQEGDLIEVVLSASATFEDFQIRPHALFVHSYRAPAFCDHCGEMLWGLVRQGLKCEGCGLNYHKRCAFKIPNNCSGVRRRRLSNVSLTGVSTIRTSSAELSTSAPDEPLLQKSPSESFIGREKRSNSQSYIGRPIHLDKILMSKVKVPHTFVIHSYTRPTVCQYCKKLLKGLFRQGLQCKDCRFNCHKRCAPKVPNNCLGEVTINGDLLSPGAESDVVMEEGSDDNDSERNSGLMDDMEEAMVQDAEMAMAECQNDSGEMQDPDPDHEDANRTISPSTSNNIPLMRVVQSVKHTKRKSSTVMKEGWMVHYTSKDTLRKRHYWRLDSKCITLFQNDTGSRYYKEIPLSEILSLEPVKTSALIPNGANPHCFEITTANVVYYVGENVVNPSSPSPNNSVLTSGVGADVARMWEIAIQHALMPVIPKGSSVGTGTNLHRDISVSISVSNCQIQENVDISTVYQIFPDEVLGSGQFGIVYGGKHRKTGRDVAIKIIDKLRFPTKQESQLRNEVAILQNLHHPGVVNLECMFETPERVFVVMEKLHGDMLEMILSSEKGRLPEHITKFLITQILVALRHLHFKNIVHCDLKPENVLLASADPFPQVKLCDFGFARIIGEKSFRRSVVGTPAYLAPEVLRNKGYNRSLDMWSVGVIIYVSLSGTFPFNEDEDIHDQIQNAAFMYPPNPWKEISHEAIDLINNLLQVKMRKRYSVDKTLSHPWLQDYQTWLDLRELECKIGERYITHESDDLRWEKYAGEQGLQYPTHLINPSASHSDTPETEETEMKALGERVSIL

Mitogen-activated protein kinase 14, sequence (Q16539 whole entry): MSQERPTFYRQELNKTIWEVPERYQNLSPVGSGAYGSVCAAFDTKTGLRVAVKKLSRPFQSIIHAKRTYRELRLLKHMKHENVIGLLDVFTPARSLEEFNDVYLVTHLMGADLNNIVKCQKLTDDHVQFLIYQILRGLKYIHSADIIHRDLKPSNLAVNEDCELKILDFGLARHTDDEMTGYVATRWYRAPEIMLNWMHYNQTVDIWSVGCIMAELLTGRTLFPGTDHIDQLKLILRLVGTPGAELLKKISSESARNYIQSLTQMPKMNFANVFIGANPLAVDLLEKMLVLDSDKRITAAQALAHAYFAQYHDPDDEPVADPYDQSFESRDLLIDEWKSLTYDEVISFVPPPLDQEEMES

Row | Structure (SMILES) | IC50 (TGF-beta receptor type-1) | IC50 [1] | IC50 [2]
1 | CCc1cccc(-c2nc(CNc3ccc(C(N)=O)cc3)[nH]c2-c2ccc3nccnc3c2)n1 | 92 nM | – | –
2 | Cc1cccc(-c2[nH]c(NCc3cccc(C#N)c3)nc2-c2ccc3c(c2)OCO3)n1 | 24 nM | – | –
3 | Cc1cccc(-c2[nH]c(CNc3ccc(C#N)cc3)nc2-c2ccc3c(c2)OCO3)n1 | 174 nM | – | –
4 | CCc1cccc(-c2nc(CNc3cccc(C#N)c3)[nH]c2-c2ccc3c(c2)OCO3)n1 | 73 nM | – | –
5 | CCc1cccc(-c2[nH]c(CNc3ccc(C#N)cc3)nc2-c2ccc3c(c2)OCO3)n1 | 360 nM | – | –
6 | Cc1cccc(-c2[nH]c(CNc3ccc(C#N)cc3)nc2-c2ccc3nccnc3c2)n1 | 42 nM | – | –
7 | CCc1cccc(-c2[nH]c(CNc3cccc(C#N)c3)nc2-c2ccc3nccnc3c2)n1 | 119 nM | – | –
8 | CCc1cccc(-c2[nH]c(CNc3ccc(C#N)cc3)nc2-c2ccc3nccnc3c2)n1 | 47 nM | – | –
9 | Cc1cccc(-c2[nH]c(CNc3ccc(C(N)=O)cc3)nc2-c2ccc3c(c2)OCO3)n1 | 262 nM | – | –
10 | CCc1cccc(-c2nc(CNc3cccc(C(N)=O)c3)[nH]c2-c2ccc3c(c2)OCO3)n1 | 46 nM | – | –
11 | Cc1cccc(-c2nc(CNc3cccc(C(N)=O)c3)[nH]c2-c2ccc3nccnc3c2)n1 | 10 nM | – | –
12 | Cc1cccc(-c2nc(CNc3ccc(C(N)=O)cc3)[nH]c2-c2ccc3nccnc3c2)n1 | 75 nM | – | –
13 | CCc1cccc(-c2[nH]c(CNc3cccc(C(N)=O)c3)nc2-c2ccc3nccnc3c2)n1 | 15 nM | – | –
14 | Cc1cccc(-c2[nH]c(CNc3cccc(C#N)c3)nc2-c2ccc3c(c2)OCO3)n1 | 46 nM | – | –
15 | Cc1cccc(-c2[nH]c(CNc3cccc(C#N)c3)nc2-c2ccc3nccnc3c2)n1 | 12 nM | 1030 nM | 1000 nM
16 | Cc1cccc(-c2[nH]c(CNc3cccc(C(N)=O)c3)nc2-c2ccc3c(c2)OCO3)n1 | 21 nM | – | –
17 | CCc1cccc(-c2[nH]c(CNc3ccc(C(N)=O)cc3)nc2-c2ccc3c(c2)OCO3)n1 | 385 nM | – | –
18 | Cc1cccc(-c2[nH]c(NCc3ccc(C#N)cc3)nc2-c2ccc3c(c2)OCO3)n1 | 153 nM | – | –
